From patent US11078170B2 (Assembly Biosciences, Inc., priority 2017, dated 2021)

System: HBV viral production from HepAD38 cells
Test: Activity of test compounds on viral production from HepAD38 cells (viral load by qPCR of HBV core sequence in supernatant)
Type: cell-based
Conditions: Hepatitis B virus, 120 h, 5 days incubation, HBV DNA in supernatant by qPCR, top concentration 10 μM, read-out: Viral Load EC50 Activity range
Description: Assay Measuring Activity of Test Compounds on Viral Production from HepAD38 Cells
HepAD38 cells grown in a T-150 flask (Corning, cat #: 430825) with Growth Medium (DMEM/F12 (1:1) (Hyclone, cat #: SH30023.02), 1×Pen/Strep (Invitrogen, cat #: 15140-122), 10% FBS (Tissue Culture Biologics, cat #: 101), 250 μg/mL G418 (Alfa Aesar, cat #: J62671), 1 μg/mL Tetracycline (Teknova, cat #: T3320)) were detached with 0.25% trypsin-EDTA (Invitrogen, cat #: 25200-056). Tetracycline-free treatment medium (15 mL DMEM/F12 (1:1) 1× Pen/step, with 2% FBS, Tet-system approved (Clontech, cat #: 631106) were then added to mix, transferred into a 50 ml conical tube (Falcon, cat #: 21008-918) and spun at 1300 rpm for 5 min. Pelleted cells were then re-suspended/washed with 50 mL of 1×DPBS (Invitrogen, cat #: 14190-136) 2 times and 50 mL treatment medium twice. HepAD38 cells were then re-suspended with 10 mL of treatment medium, syringed and counted. Wells of 96-well clear bottom TC plate (Corning, cat #: 3904) were seeded at 50,000 cells/well in 180 μL of treatment medium, and 20 μL of either 10% DMSO (Sigma, cat #: D4540) as controls or a 10× solution of test compounds in 10% DMSO in treatment media was added for a final compound concentration starting at 10 μM, and plates were incubated in 5% CO2 incubator at 37° C. for 5 days.
Subsequently viral load production was assayed by quantitative PCR (qPCR) of the HBV core sequence. PCR reaction mixture containing forward primers HBV-f 5′-CTGTGCCTTGGGTGGCTTT-3′, which is SEQ ID NO 1, (IDT DNA), Reverse primers HBV-r 5′-[…]-3′, which is SEQ ID NO 2 (IDT DNA), Fluorescent TaqMan™ Probes HBV-probe 5′-FAM/AGCTCCAAA/ZEN/[…]/3IABkFQ-3′ (IDT DNA), which is SEQ ID NO 3, 10 μL/well of PerfeCTa® qPCR ToughMix® (Quanta Biosciences, Cat #: 95114-05K), and 6 µL/well of DEPC water (Alfa Aesar, cat #: J62087) was prepared. Four μL of supernatant was added to 16 μL of the reaction mixture in a qPCR plate (Applied Biosytems, Cat #: 4309849), sealed with a film (Applied Biosystems, Cat #: 4311971), centrifuged for a few seconds, and subsequently run on an Applied Biosystems VIIA7. The PCR mixture was incubated at 45° C. for 5 min, then 95° C. for 10 min, followed by 40 cycles of 10 seconds at 95° C. and 20 seconds at 60° C. Viral load was quantified against known HBV DNA standards by using ViiA™ 7 Software. Viral load in the supernatant from wells with treated cells were compared against viral load in supernatant from DMSO control wells (≥3 per plate). Cell viability assay was performed with CellTiter-Glo Luminescent Cell Viability Assay (Promega, cat #: G7573) with modification. Mixed appropriate amount of CellTiter-Glo (CTG) 1×DPBS in a 1:1 ratio, added 100 uL of the mixture to each well followed completely removal of all supernatant in each well without touching cell surface. Incubated the plate at room temperature for 10 min on an orbital shaker, and then read the plate with a plate reader (TECAN M1000 or Envision). EC50 or CC50 values were calculated through curve-fitting of the four-parameter nonlinear-logistic-regression model (GraphPad Prism or Dotmatics). CC50 values were all >10 μM.

Compared with `CN1[C@H](C(=O)Nc2ccc(F)c(Br)c2)C[C@H](c2nccs2)NS1(=O)=O` [HBV-CSU-060-ISO-II, Cis-N-(3-bromo-4-fluorophenyl)-2-methyl-5-(thiazol-2-yl)-1,2,6-thiadiazinane-3-carboxamide 1,1-dioxide], `CN1[C@@H](C(=O)Nc2ccc(F)c(Cl)c2)C[C@@H](c2nccs2)NS1(=O)=O` [HBV-CSU-027-ISO-I, Cis-N-(3-chloro-4-fluorophenyl)-2-methyl-5-(thiazol-2-yl)-1,2,6-thiadiazinane-3-carboxamide 1,1-dioxide] is higher in EC50: < 1000 nM for the first, > 5000 nM for the second. The first is the more potent here.

`CN1C(C(=O)Nc2ccc(F)c(Cl)c2)CC(c2ncc(-c3ccc(F)cn3)s2)NS1(=O)=O` (racemic) [HBV-CSU-252, Cis-N-(3-Chloro-4-fluorophenyl)-5-(5-(5-fluoropyridin-2-yl)thiazol-2-yl)-2-methyl-1,2,6-thiadiazinane-3-carboxamide 1,1-dioxide] and `CN1C(C(=O)Nc2ccc(F)c(Cl)c2)CC(c2ncc(-c3ccn(C)n3)s2)NS1(=O)=O` (racemic) [HBV-CSU-280, Cis-N-(3-Chloro-4-fluorophenyl)-2-methyl-5-(5-(1-methyl-1H-pyrazol-3-yl)thiazol-2-yl)-1,2,6-thiadiazinane-3-carboxamide 1,1-dioxide] cannot be ordered by EC50: < 1000 nM for the first, < 1000 nM for the second.

Compared with `CC(C)(C)OCCN1[C@@H](C(=O)Nc2ccc(F)c(Cl)c2)C[C@@H](c2nccs2)NS1(=O)=O` (relative stereo) [HBV-CSU-071-ISO-II, Cis-2-(2-(tert-Butoxy)ethyl)-N-(3-chloro-4-fluorophenyl)-5-(thiazol-2-yl)-1,2,6-thiadiazinane-3-carboxamide 1,1-dioxide], `COC(C)(C)CCN1C(C(=O)Nc2ccc(F)c(Cl)c2)CC(c2nccs2)NS1(=O)=O` (racemic) [HBV-CSU-083, Cis-N-(3-Chloro-4-fluorophenyl)-2-(3-methoxy-3-methylbutyl)-5-(thiazol-2-yl)-1,2,6-thiadiazinane-3-carboxamide 1,1-dioxide] is higher in EC50: 1000 to 5000 nM for the first, > 5000 nM for the second. The first is the more potent here.

First: [2H]C1[C@]([2H])(C(=O)Nc2ccc(F)c(Cl)c2)N(C([2H])([2H])[2H])S(=O)(=O)N[C@]1([2H])c1ncc(-c2cn(C([2H])([2H])[2H])cn2)s1 (stereo in doubt) [HBV-CSU-339-ISO-II, Cis-N-(3-Chloro-4-fluorophenyl)-2-(methyl-d3)-5-(5-(1-(methyl-d3)-1H-imidazol-4-yl)thiazol-2-yl)-1,2,6-thiadiazinane-3,4,5-d3-3-carboxamide 1,1-dioxide]
Second: CN1C(C(=O)Nc2ccc(F)c(Cl)c2)CC(c2ncc(-c3ccccc3)s2)NS1(=O)=O (centres unmarked)
The EC50 of the first is higher: 1000 to 5000 nM for the first, < 1000 nM for the second.

First: CN1[C@H](C(=O)Nc2ccc(F)c(Cl)c2)C[C@H](c2cc(-c3ccc(C(F)(F)F)nc3)cs2)NS1(=O)=O [HBV-CSU-166-ISO-I, Cis-N-(3-chloro-4-fluorophenyl)-2-methyl-5-(4-(6-(trifluoromethyl)pyridin-3-yl)thiophen-2-yl)-1,2,6-thiadiazinane-3-carboxamide 1,1-dioxide]
Second: CN1[C@@H](C(=O)Nc2ccc(F)c(Cl)c2)C[C@@H](c2cc(-c3ccc(F)cc3)cs2)NS1(=O)=O [HBV-CSU-239-ISO-II]
The EC50 of the first is lower: < 1000 nM for the first, 1000 to 5000 nM for the second. The first is the more potent here.

First: CN1[C@H](C(=O)Nc2ccc(F)c(Cl)c2)C[C@H](c2cc(-c3cncn3C)cs2)NS1(=O)=O [HBV-CSU-285-ISO-I, Cis-N-(3-Chloro-4-fluorophenyl)-2-methyl-5-(4-(1-methyl-1H-imidazol-5-yl)thiophen-2-yl)-1,2,6-thiadiazinane-3-carboxamide 1,1-dioxide]
Second: CN1[C@@H](C(=O)Nc2ccc(F)c(Cl)c2)C[C@@H](c2ccc(-c3cnco3)s2)NS1(=O)=O [HBV-CSU-269-ISO-II, Cis-N-(3-Chloro-4-fluorophenyl)-2-methyl-5-(5-(oxazol-5-yl)thiophen-2-yl)-1,2,6-thiadiazinane-3-carboxamide 1,1-dioxide]
The EC50 of the first is lower: < 1000 nM for the first, 1000 to 5000 nM for the second.

First: CN1[C@@H](C(=O)Nc2ccc(F)c(Cl)c2)C[C@@H](C2CCCC2)NS1(=O)=O [HBV-CSU-222-ISO-II, Cis-N-(3-chloro-4-fluorophenyl)-5-cyclopentyl-2-methyl-1,2,6-thiadiazinane-3-carboxamide 1,1-dioxide]
Second: CN1[C@@H](C(=O)Nc2ccc(F)c(Cl)c2)C[C@@H](c2ccsn2)NS1(=O)=O (relative stereo) [HBV-CSU-056-ISO-II, Cis-N-(3-chloro-4-fluorophenyl)-5-(isothiazol-3-yl)-2-methyl-1,2,6-thiadiazinane-3-carboxamide 1,1-dioxide]
The EC50 of the first is lower: 1000 to 5000 nM for the first, > 5000 nM for the second.

Compared with `COCCN1[C@@H](C(=O)Nc2ccc(F)c(Br)c2)C[C@@H](c2nccs2)NS1(=O)=O` [HBV-CSU-059-ISO-I, Cis-N-(3-bromo-4-fluorophenyl)-2-(2-methoxyethyl)-5-(thiazol-2-yl)-1,2,6-thiadiazinane-3-carboxamide 1,1-dioxide], `CN1[C@H](C(=O)Nc2ccc(F)c(Br)c2)C[C@H](c2ccc(F)cc2)NS1(=O)=O` [HBV-CSU-211-ISO-I, Cis-N-(3-Bromo-4-fluorophenyl)-5-(4-fluorophenyl)-2-methyl-1,2,6-thiadiazinane-3-carboxamide 1,1-dioxide] is lower in EC50: > 5000 nM for the first, < 1000 nM for the second. The second is the more potent here.

Compared with `Cc1nn(C)c(C)c1-c1ccc([C@@H]2C[C@H](C(=O)Nc3ccc(F)c(Cl)c3)N(C)S(=O)(=O)N2)s1` [HBV-CSU-314-ISO-II, Cis-N-(3-chloro-4-fluorophenyl)-2-methyl-5-(5-(1,3,5-trimethyl-1H-pyrazol-4-yl)thiophen-2-yl)-1,2,6-thiadiazinane-3-carboxamide 1,1-dioxide], `Cc1c(-c2ccc(C3CC(C(=O)Nc4ccc(F)c(Cl)c4)N(C)S(=O)(=O)N3)s2)cnn1C` (racemic) [HBV-CSU-312, Cis-N-(3-chloro-4-fluorophenyl)-5-(5-(1,5-dimethyl-1H-pyrazol-4-yl)thiophen-2-yl)-2-methyl-1,2,6-thiadiazinane-3-carboxamide 1,1-dioxide] is lower in EC50: 1000 to 5000 nM for the first, < 1000 nM for the second. The second is the more potent here.

`CN1C(C(=O)Nc2ccc(F)c(Cl)c2)CC(c2ccc(-c3cnn(C)c3)cc2)NS1(=O)=O` (racemic) [HBV-CSU-246, Cis-N-(3-Chloro-4-fluorophenyl)-2-methyl-5-(4-(1-methyl-1H-pyrazol-4-yl)phenyl)-1,2,6-thiadiazinane-3-carboxamide 1,1-dioxide] and `CN1C(C(=O)Nc2ccc(F)c(Cl)c2)CC(c2ccc(Br)cc2)NS1(=O)=O` (stereo not drawn) [HBV-CSU-202, Cis-5-(4-Bromophenyl)-N-(3-chloro-4-fluorophenyl)-2-methyl-1,2,6-thiadiazinane-3-carboxamide 1,1-dioxide] cannot be ordered by EC50: < 1000 nM for the first, < 1000 nM for the second.

Compared with `CN1C(C(=O)Nc2ccc(F)c(Cl)c2)CC(c2ccccn2)NS1(=O)=O` (racemic) [HBV-CSU-031, Cis-N-(3-Chloro-4-fluorophenyl)-2-methyl-5-(pyridin-2-yl)-1,2,6-thiadiazinane-3-carboxamide 1,1-dioxide], `CN1[C@H](C(=O)Nc2ccc(F)c(Cl)c2)C[C@@H](c2ccc(Br)s2)NS1(=O)=O` (racemic) [HBV-CSU-114-Trans (Rac), Trans-5-(5-bromothiophen-2-yl)-N-(3-chloro-4-fluorophenyl)-2-methyl-1,2,6-thiadiazinane-3-carboxamide 1,1-dioxide] is higher in EC50: < 1000 nM for the first, > 5000 nM for the second.

With `CN1[C@@H](C(=O)Nc2ccc(F)c(Cl)c2)C[C@@H](c2ccc(-c3cnn(CCO)c3)s2)NS1(=O)=O` [HBV-CSU-293-ISO-II, Cis-N-(3-chloro-4-fluorophenyl)-5-(5-(1-(2-hydroxyethyl)-1H-pyrazol-4-yl)thiophen-2-yl)-2-methyl-1,2,6-thiadiazinane-3-carboxamide 1,1-dioxide] the EC50 was > 5000 nM.
